In patent US20240287071A1, “CLASS OF IMIDAZOLIDINOPYRIMIDONE COMPOUNDS AND USE THEREOF IN TREATMENT OF HSCLPP-MEDIATED DISEASES” (SICHUAN UNIVERSITY, priority 2021, published 2024):

Columns and labels:
HCT116 = assay: CCK-8 in vitro anti-tumor proliferation assay; format: cell-based; conditions: Homo sapiens, HCT-116; Table 5; HCT116; 72 hours; read-out: IC50
Experimental: Example 3: In vitro anti-tumor proliferation assay of the compounds. The purpose of this experiment was to use CCK-8 to detect the in vitro inhibitory activity of the compounds of the present invention against the proliferation of tumor cells. The main reagents, such as RPMI-1640, DMEM high-glucose culture medium, fetal bovine serum, trypsin, etc., were purchased from Gibco BRL. CCK8 and DMSO were products of Sigma. For in vitro experiment, the test compounds were prepared as 10 mM stock solutions in DMSO and stored at −20° C. in the refrigerator in the dark for later use, then diluted to desired concentration with complete culture medium before use. The human lung cancer cells, colon cancer cells, breast cancer cells, glioblastoma cells, human myelomonocytic leukemia cells, and human Burkitt's lymphoma cells used in this experiment were all purchased from the American ATCC company and preserved in laboratory of the inventors. All the above cell lines were cultured in RPMI-1640 complete medium or DMEM complete medium containing 10% fetal bovine serum, 100 U/mL penicillin, and 100 μg/mL streptomycin under 5% carbon dioxide, 37° C. conditions. […] The previous culture medium was discarded, fresh culture medium was added to resuspend the cells, and then the cells were counted. According to the growth rate of different cells, the cell seeding concentration was determined, generally being 3000-5000 cells/well. After determining the seeding concentration, the cell suspension was diluted to desired concentrations with fresh culture medium, and then added to a 96-well plate with 100 μL per well, and 200 μL of PBS was added to the edge wells to prevent evaporation of the culture medium. On the second day, drug treatment was performed. First, the compounds were diluted into a series of gradients with culture medium, and then the drug solution was added to the 96-well plate, with 3 parallel wells for each gradient. Each plate set a blank control group, and ONC201 was used as the positive control group.

HsClpP = HsClpP (Homo sapiens, UniProt Q16740); assay: HsClpP enzyme hydrolysis of short peptide substrate AC-WLA-AMC; conditions: promoting hydrolysis of short peptide substrate by HsClpP, relative to blank control
Chain of HsClpP (Q16740 57-277): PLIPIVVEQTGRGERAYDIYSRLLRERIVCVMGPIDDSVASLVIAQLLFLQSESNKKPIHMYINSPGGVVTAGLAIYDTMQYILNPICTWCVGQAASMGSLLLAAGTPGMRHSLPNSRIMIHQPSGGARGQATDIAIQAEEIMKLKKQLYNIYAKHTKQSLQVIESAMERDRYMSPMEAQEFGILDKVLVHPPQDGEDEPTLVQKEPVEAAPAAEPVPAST
Experimental: This study evaluated the regulatory activity of the compounds on HsClpP by examining the hydrolysis effects of HsClpP protein on the AC-WLA-AMC substrate . […] The small molecules and the HsClpP protein solution were added to a flat-bottomed black 96-well plate, with three replicate wells for each group. […] DMSO was used as a negative control instead of small molecules. The multiple of readings at different concentrations against the readings of DMSO group was recorded as an index for evaluation of hydrolysis activity. . . . GraphPad Prism was used to plot the obtained multiple values and calculate the EC50 values.

Structure (SMILES)	IC50 (HCT116) [nM]	Regulatory efficacy 1 μM (HsClpP)	Regulatory efficacy 10 μM (HsClpP)
CN1CCn2c1nc(=O)c1c2CCN(Cc2ccccc2)C1 [Compound 2, 7-benzyl-3-methyl-2,3,6,7,8,9-hexahydroimidazo[1,2-a]pyrido[3,4-e]pyrimidin-5(1H)-one]	> 10000	+ (+ indicating that the increased efficacy is less than 50% of the blank control group)	+ (+ indicating that the increased efficacy is less than 50% of the blank control group)
O=c1nc2n(c3c1CN(Cc1ccccc1)CC3)CCN2CC1CC1 [Compound 5, 7-benzyl-3-cyclopropylmethyl-2,3,6,7,8,9-hexahydroimidazo[1,2-a]pyrido[3,4-e]pyrimidin-5(1H)-one]	> 10000	+ (+ indicating that the increased efficacy is less than 50% of the blank control group)	+ +
O=c1nc2n(c3c1CN(Cc1ccccc1)CC3)CCN2CC1CCCCC1 [Compound 6, 7-benzyl-3-cyclohexylmethyl-2,3,6,7,8,9-hexahydroimidazo[1,2-a]pyrido[3,4-e]pyrimidin-5(1H)-one]	2500	+ +	+ +
O=c1nc2n(c3c1CN(Cc1ccccc1)CC3)CCN2Cc1ccccc1 [Compound 7, 7-benzyl-3-benzyl-2,3,6,7,8,9-hexahydroimidazo[1,2-a]pyrido[3,4-e]pyrimidin-5(1H)-one]	500	+ +	+ +
O=c1nc2n(c3c1CN(Cc1ccccc1)CC3)CCN2Cc1ccc2ccccc2c1 [Compound 8, 7-benzyl-3-(2-naphthylmethyl)-2,3,6,7,8,9-hexahydroimidazo[1,2-a]pyrido[3,4-e]pyrimidin-5(1H)-one]	300	+ +	+ +
Cc1cccc(CN2CCn3c2nc(=O)c2c3CCN(Cc3ccccc3)C2)c1 [Compound 11, 7-benzyl-3-(3-methylbenzyl)-2,3,6,7,8,9-hexahydroimidazo[1,2-a]pyrido[3,4-e]pyrimidin-5(1H)-one]	300	+ +	+ +
Cc1ccc(CN2CCn3c2nc(=O)c2c3CCN(Cc3ccccc3)C2)cc1 [Compound 12, 7-benzyl-3-(4-methylbenzyl)-2,3,6,7,8,9-hexahydroimidazo[1,2-a]pyrido[3,4-e]pyrimidin-5(1H)-one]	200	+ +	+ +
COc1ccccc1CN1CCn2c1nc(=O)c1c2CCN(Cc2ccccc2)C1 [Compound 13, 7-benzyl-3-(2-methoxybenzyl)-2,3,6,7,8,9-hexahydroimidazo[1,2-a]pyrido[3,4-e]pyrimidin-5(1H)-one]	1300	+ +	+ +
COc1ccc(CN2CCn3c2nc(=O)c2c3CCN(Cc3ccccc3)C2)cc1 [Compound 14, 7-benzyl-3-(4-methoxybenzyl)-2,3,6,7,8,9-hexahydroimidazo[1,2-a]pyrido[3,4-e]pyrimidin-5(1H)-one]	1200	+ +	+ +
O=c1nc2n(c3c1CN(Cc1ccccc1)CC3)CCN2Cc1ccc(Br)cc1 [Compound 17, 7-benzyl-3-(4-bromobenzyl)-2,3,6,7,8,9-hexahydroimidazo[1,2-a]pyrido[3,4-e]pyrimidin-5(1H)-one]	500	+ +	+ +
O=c1nc2n(c3c1CN(Cc1ccccc1)CC3)CCN2Cc1ccc(Br)c(F)c1 [Compound 22, 7-benzyl-3-(4-bromo-3-fluorobenzyl)-2,3,6,7,8,9-hexahydroimidazo[1,2-a]pyrido[3,4-e]pyrimidin-5 (1H)-one]	80	+ +	+ +
O=c1nc2n(c3c1CN(Cc1ccccc1)CC3)CCN2Cc1ccc(Cl)c(Cl)c1 [Compound 26, 7-benzyl-3-(3,4-dichlorobenzyl)-2,3,6,7,8,9-hexahydroimidazo[1,2-a]pyrido[3,4-e]pyrimidin-5(1H)-one]	30	+ +	+ +
CCN1CCc2c(c(=O)nc3n2CCN3Cc2ccccc2C)C1 [Compound 28, 7-ethyl-3-(2-methylbenzyl)-2,3,6,7,8,9-hexahydroimidazo[1,2-a]pyrido[3,4-e]pyrimidin-5(1H)-one]	> 10000	+ (+ indicating that the increased efficacy is less than 50% of the blank control group)	+ (+ indicating that the increased efficacy is less than 50% of the blank control group)
Cc1cccc(CN2CCc3c(c(=O)nc4n3CCN4Cc3ccccc3C)C2)c1 [Compound 32, 3-(2-methylbenzyl)-7-(3-methylbenzyl)-2,3,6,7,8,9-hexahydroimidazo[1,2-a]pyrido[3,4-e]pyrimidin-5(1H)-one]	1500	+ +	+ +
Cc1ccccc1CN1CCn2c1nc(=O)c1c2CCN(Cc2cccc(C#N)c2)C1 [Compound 35, 3-((3-(2-methylbenzyl)-5-oxo-2,3,6,7,8,9-hexahydroimidazo[1,2-a]pyrido[3,4-e]pyrimidin-7(6H)-yl)methyl)benzonitrile]	500	+ +	+ +
Cc1ccccc1CN1CCn2c1nc(=O)c1c2CCN(C(=O)c2ccccc2)C1 [Compound 39, 7-benzoyl-3-(2-methylbenzyl)-2,3,6,7,8,9-hexahydroimidazo[1,2-a]pyrido[3,4-e]pyrimidin-5(1H)-one]	> 10000	+ (+ indicating that the increased efficacy is less than 50% of the blank control group)	+ (+ indicating that the increased efficacy is less than 50% of the blank control group)
COc1ccccc1CN1CCn2c1nc(=O)c1c2C(F)(F)CN(Cc2ccccc2)C1 [Compound 74, 7-Benzyl-9,9-difluoro-3-(2-methoxybenzyl)-2,3,6,7,8,9-hexahydroimidazo[1,2-a]pyrido[3,4-e]pyrimidin-5(1H)-one]	–	+ +	+ +
CS(=O)(=O)c1ccc(CN2CCn3c2nc(=O)c2c3C(F)(F)CN(Cc3ccccc3)C2)cc1 [Compound 75, 7-Benzyl-9,9-difluoro-3-(4-(methylsulfonyl)benzyl)-2,3,6,7,8,9-hexahydroimidazo[1,2-a]pyrido[3,4-e]pyrimidin-5(1H)-one]	–	+ +	+ +
O=c1nc2n(c3c1CN(Cc1ccccc1)CC3(F)F)CCN2Cc1ccc(Cl)cc1 [Compound 77, 7-Benzyl-3-(4-chlorobenzyl)-9,9-difluoro-2,3,6,7,8,9-hexahydroimidazo[1,2-a]pyrido[3,4-e]pyrimidi n-5(1H)-one]	–	+ +	+ +
O=c1nc2n(c3c1CN(Cc1ccccc1)CC3(F)F)CCN2Cc1ccc(Br)cc1 [Compound 78, 7-Benzyl-3-(4-bromobenzyl)-9,9-difluoro-2,3,6,7,8,9-hexahydroimidazo[1,2-a]pyrido[3,4-e]pyrimidin-5(1H)-one]	–	+ +	+ +
O=c1nc2n(c3c1CN(Cc1ccccc1)CC3(F)F)CCN2Cc1ccc(Cl)c(Cl)c1 [Compound 79, 7-Benzyl-3-(3,4-dichlorobenzyl)-9,9-difluoro-2,3,6,7,8,9-hexahydroimidazo[1,2-a]pyrido[3,4-e]pyrimidin-5(1H)-one]	–	+ +	+ +
O=c1nc2n(c3c1CN(Cc1ccccc1)CC3(F)F)CCN2Cc1ccc(F)c(F)c1 [Compound 80, 7-Benzyl-3-(3,4-difluorobenzyl)-9,9-difluoro-2,3,6,7,8,9-hexahydroimidazo[1,2-a]pyrido[3,4-e]pyrimidin-5(1H)-one]	–	+ +	+ +
O=c1nc2n(c3c1CN(Cc1ccccc1)CC3(F)F)CCN2Cc1ccc(F)cc1F [Compound 81, 7-Benzyl-3-(2,4-difluorobenzyl)-9,9-difluoro-2,3,6,7,8,9-hexahydroimidazo[1,2-a]pyrido[3,4-e]pyrimidin-5(1H)-one]	–	+ +	+ +
